Experimental data taken from article PMC3001897, “High-Throughput Chemical Screen Identifies a Novel Potent Modulator of Cellular Circadian Rhythms and Reveals CKIα as a Clock Regulatory Kinase” (PLoS Biology, 2010).
Blank lines part the entries; values can stand above or below the compound they belong to.

Columns and labels:
cultured cells = tested on: cultured cells; parameters: method as in PMID 16983144, PMID 15767683, PMID 17876059; settings: ref [14],[16]–[17]; cited from earlier work
Bmal1-dLuc U2OS cells [1] = assay: U2OS cell-based circadian assay (Bmal1-dLuc luminescence rhythms); parameters: species or system human; settings: Bmal1-dLuc U2OS cells; for Effect on circadian period: various concentrations; for Period effect compared with longdaysin: Figure S10
Procedure: (§1) The compound screen was done with the high-throughput circadian assay system as described previously. In brief, Bmal1-dLuc U2OS cells were suspended in the culture medium (DMEM supplemented with 10% fetal bovine serum, 0.29 mg/ml L-glutamine, 100 units/ml penicillin, and 100 µg/ml streptomycin) and plated onto 384-well white solid-bottom plates at 20 µl (2,000 cells) per well. After 2 d, 50 µl of the explant medium (DMEM supplemented with 2% B27, 10 mM HEPES, 0.38 mg/ml sodium bicarbonate, 0.29 mg/ml L-glutamine, 100 units/ml penicillin, 100 µg/ml streptomycin, 0.1 mg/ml gentamicin, and 1 mM luciferin, pH 7.2) was dispensed to each well, followed by the application of 500 nl of compounds (dissolved in DMSO; final 0.7% DMSO). The plate was covered with an optically clear film and set to luminescence monitoring system equipped with a CCD imager (ViewLux, Perkin Elmer). The luminescence was recorded every 2 h for 3–4 days. In follow-up studies, the luminescence was recorded every 100 min by using a microplate reader (Infinite M200, Tecan). The period parameter was obtained from the luminescence rhythm by curve fitting program CellulaRhythm or MultiCycle (Actimetrics), both of which gave similar results.

ERK2 = biological target: T1, ERK2 (Homo sapiens, UniProt P28482); assay: In vitro kinase assay, ERK2; assay type: biochemical
T1 construct: purchased Millipore 14-550
T1 sequence (P28482 whole entry, species assumed): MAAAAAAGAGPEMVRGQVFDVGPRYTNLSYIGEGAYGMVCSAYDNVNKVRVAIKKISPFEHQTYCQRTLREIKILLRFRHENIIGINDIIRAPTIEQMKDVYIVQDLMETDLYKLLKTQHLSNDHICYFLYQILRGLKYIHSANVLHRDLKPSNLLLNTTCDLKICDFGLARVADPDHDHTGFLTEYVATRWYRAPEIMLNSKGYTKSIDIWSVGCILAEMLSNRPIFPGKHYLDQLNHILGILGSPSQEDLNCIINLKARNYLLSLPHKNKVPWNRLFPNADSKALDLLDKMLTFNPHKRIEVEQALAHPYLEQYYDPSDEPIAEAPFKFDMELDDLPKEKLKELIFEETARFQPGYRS
Procedure: (§2) The CKIδ, CKIα, CDK7, and ERK2 kinase assays were performed on 384-well plates (10 µl volume). The reaction mixture was as follows: for CKIδ, 2 ng/µl CKIδ (Millipore, 14-520), 50 µM peptide substrate RKKKAEpSVASLTSQCSYSS corresponding to human PER2 Lys659-Ser674 [47], and CKI buffer (40 mM Tris, 10 mM MgCl2, 0.5 mM DTT, 0.1 mg/ml BSA, pH 7.5); for CKIα, 1 ng/µl CKIα (Invitrogen, PV3850), 50 µM CKI peptide substrate (Anaspec, 60547-1), and CKI buffer; for CDK7, 5 ng/µl CDK7 (Millipore, 14-476), 100 µM Cdk7/9 peptide substrate (Millipore, 12-526), and CKI buffer; for ERK2, 1.5 ng/µl ERK2 (Millipore, 14-550), 0.8 µg/µl MBP (Millipore, 13-104), and ERK buffer (50 mM Tris, 10 mM MgCl2, 0.5 mM DTT, 1 mM EGTA, pH 7.5). Five hundred nl of compound was added to the mixture (final 5% DMSO), and the reaction was started by adding ATP (final 5 µM). After incubation at 30°C for 3h, 10 µl of Kinase-Glo Luminescent Kinase Assay reagent (Promega) was added, and the luminescence was detected to determine remaining ATP amount. […] IC50 value was obtained by using Prism software (GraphPad Software).

CDK7 = biological target: T2, CDK7 (Homo sapiens, UniProt P50613); assay: In vitro kinase assay, CDK7; assay type: biochemical
T2 construct: purchased Millipore 14-476
T2 sequence (P50613 whole entry): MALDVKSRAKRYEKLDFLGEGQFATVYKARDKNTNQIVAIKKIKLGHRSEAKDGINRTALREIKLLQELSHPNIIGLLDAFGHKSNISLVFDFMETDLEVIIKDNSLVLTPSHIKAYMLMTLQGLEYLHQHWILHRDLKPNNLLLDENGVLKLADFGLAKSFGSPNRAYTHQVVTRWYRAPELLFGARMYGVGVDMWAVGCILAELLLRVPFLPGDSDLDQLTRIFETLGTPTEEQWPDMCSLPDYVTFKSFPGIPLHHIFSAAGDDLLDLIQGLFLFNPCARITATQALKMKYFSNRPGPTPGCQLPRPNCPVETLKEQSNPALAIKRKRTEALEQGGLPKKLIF
T2 sequence (P51946 whole entry partner): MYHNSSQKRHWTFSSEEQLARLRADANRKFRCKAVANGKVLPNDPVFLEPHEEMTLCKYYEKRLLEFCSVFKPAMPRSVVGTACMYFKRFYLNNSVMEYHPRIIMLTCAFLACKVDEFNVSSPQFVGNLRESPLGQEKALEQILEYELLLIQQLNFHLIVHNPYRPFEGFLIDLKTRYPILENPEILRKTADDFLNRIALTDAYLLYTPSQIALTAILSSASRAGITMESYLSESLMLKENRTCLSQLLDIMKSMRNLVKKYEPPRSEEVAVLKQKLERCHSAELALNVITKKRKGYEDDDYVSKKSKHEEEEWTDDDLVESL
T2 sequence (P51948 whole entry partner): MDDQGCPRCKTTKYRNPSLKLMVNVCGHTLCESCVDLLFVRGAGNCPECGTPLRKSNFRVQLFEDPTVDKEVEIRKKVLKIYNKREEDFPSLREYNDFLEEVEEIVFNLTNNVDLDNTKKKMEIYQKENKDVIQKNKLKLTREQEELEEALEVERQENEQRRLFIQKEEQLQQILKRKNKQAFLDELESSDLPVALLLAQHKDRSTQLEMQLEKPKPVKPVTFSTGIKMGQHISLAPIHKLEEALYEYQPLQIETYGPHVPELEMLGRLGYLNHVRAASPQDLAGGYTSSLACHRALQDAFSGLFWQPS
Procedure: as §2

CKIδ = CKIδ (Homo sapiens, UniProt P48730); assay: In vitro kinase assay, CKIδ; assay type: biochemical; parameters: purchased Millipore 14-520
Sequence of CKIδ (P48730 whole entry, species assumed): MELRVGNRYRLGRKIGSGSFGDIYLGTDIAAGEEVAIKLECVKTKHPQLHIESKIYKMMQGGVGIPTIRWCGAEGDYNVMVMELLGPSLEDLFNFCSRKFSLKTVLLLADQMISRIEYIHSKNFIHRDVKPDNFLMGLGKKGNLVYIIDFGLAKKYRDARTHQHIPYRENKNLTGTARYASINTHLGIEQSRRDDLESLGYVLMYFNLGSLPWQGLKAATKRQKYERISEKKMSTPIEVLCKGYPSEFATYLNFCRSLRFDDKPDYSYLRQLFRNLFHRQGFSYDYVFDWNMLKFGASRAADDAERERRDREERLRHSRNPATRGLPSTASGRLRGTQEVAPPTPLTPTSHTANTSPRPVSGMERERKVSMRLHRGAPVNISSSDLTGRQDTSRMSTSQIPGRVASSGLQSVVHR
Procedure: as §2

CKIα = CKIα (Homo sapiens, UniProt P48729); assay: In vitro kinase assay, CKIα; assay type: biochemical; parameters: purchased Invitrogen PV3850
Sequence of CKIα (P48729 whole entry): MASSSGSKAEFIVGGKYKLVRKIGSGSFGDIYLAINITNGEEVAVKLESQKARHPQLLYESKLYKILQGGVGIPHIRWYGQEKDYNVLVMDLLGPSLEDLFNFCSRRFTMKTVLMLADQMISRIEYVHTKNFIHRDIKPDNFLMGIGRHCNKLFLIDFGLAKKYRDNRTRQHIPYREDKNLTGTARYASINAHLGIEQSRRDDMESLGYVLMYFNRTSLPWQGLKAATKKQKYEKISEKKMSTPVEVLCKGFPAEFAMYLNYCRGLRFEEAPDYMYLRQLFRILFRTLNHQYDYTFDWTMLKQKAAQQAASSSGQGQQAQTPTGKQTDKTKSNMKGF
Procedure: as §2

Bmal1-dLuc U2OS cells [2] = assay: Cytotoxicity in the U2OS circadian assay; assay type: cell-based, human
Procedure: as §1

SCN explants = tested on: SCN explants; parameters: method as in PMID 18448638; settings: ref [59]; cited from earlier work

SMILES: NCCNS(=O)(=O)c1ccc(Cl)c2ccncc12 [CKI-7]
Effect on period in cultured cells (cultured cells): period lengthening

IC50 (ERK2; ATP 5 µM, from Figure 2E): 160 µM | Potency against ERK2 relative to longdaysin (times less) (ERK2; in vitro kinase assay): ~3 times | IC50 (CDK7; ATP 5 µM, from Figure 2E): 29 µM | Inhibition of CDK7 compared with longdaysin (CDK7; in vitro kinase assay): inhibited CDK7 similarly to longdaysin | IC50 (CKIδ; ATP 5 µM, from Figure 2E): 21 µM | Potency against CKIδ relative to longdaysin (times less) (CKIδ; in vitro kinase assay): ~3 times | IC50 (CKIα; ATP 5 µM, from Figure 2E): 23 µM | Potency against CKIα relative to longdaysin (times less) (CKIα; in vitro kinase assay): ~3 times
SMILES: CC(C)n1cnc2c(NCc3ccccc3)ncnc21 [Compound 1, N-benzyl-9-isopropyl-9H-purin-6-amine]
Effect on circadian period (Bmal1-dLuc U2OS cells [1]): strongly lengthened the period in a dose-dependent manner | Concentration for period change, 5 h (Bmal1-dLuc U2OS cells [1]; from Figure 1B): 4.4 µM | Concentration for period change, 10 h (Bmal1-dLuc U2OS cells [1]; from Figure 1B): 17 µM | Concentration for period change, 15 h (Bmal1-dLuc U2OS cells [1]; from Figure 1B): 38 µM

SMILES: CC(=O)NCCCCCCNc1nc(NCc2cccc(C(F)(F)F)c2)c2ncn(C(C)C)c2n1 [Compound 2, N-(6-(9-isopropyl-6-(3-(trifluoromethyl)benzylamino)-9H-purin-2-ylamino)hexyl)acetamide]
Effect on circadian period (Bmal1-dLuc U2OS cells [1]): retained the period lengthening effect

SMILES: NC(=O)c1ccc(-c2nc(-c3ccc4c(c3)OCCO4)c(-c3ccccn3)[nH]2)cc1 [Compound D4476, reference compound]
Period effect compared with longdaysin (Bmal1-dLuc U2OS cells [1]): smaller period effects | Concentration showing cytotoxicity (Bmal1-dLuc U2OS cells [2]): 71 µM | Effect on period in cultured cells (cultured cells): period lengthening

SMILES: N#CC(=C(/N)Sc1ccccc1N)/C(C#N)=C(/N)Sc1ccccc1N [Compound U0126]
Effect on circadian rhythms in SCN explants (SCN explants): Attenuation of the circadian rhythms

SMILES: COc1cc(OC)c(C=C2C(O)=Nc3ccccc32)c(OC)c1 [IC261, reference compound]
Period effect compared with longdaysin (Bmal1-dLuc U2OS cells [1]): smaller period effects | Effect on period in cultured cells (cultured cells): period lengthening
